The conditions of series [1]: cited from earlier work.
For a further series, the system named is hemorrhoid. The series can be described thus: injection of the solution into the hemorrhoid of patients. The format is in vivo. Conditions: injected into the hemorrhoid as water solution. As to the method: A chemical treatment for the permanent relief of hemorrhoids is provided by the chemical composition of this invention. The composition comprises a mixture of Yong Noe, a Chinese herb known to Western man as camphor, quinine, and distilled water. These two ingredients are ground into powder and dissolved in distilled water. The composition is then injected by a medical practitioner into the affected area at least once, and perhaps several times, over a two week period. After a period of time, the hemorrhoidal tissue will turn dark, harden, and flake off leaving the skin clear at the site of the former hemorrhoid. A mixture of Yong Noe and quinine in a […] in an amount of 37.5 grams are divided into 7 equal weight portions. Each portion of the mixture is dissolved in 4 grams of water by placing the composition in a container in boiling water for 3-5 minutes. The composition is a clear whitish solution. This solution is used at room temperature as the medicament for the treatment of hemorrhoids as will be discussed infra. […] The composition of 37.5 grams of solids is comprised of 25 grams of quinine and 12.5 grams of camphor. This mixture is equally divided and filled into seven different 10 cc vials, and 4 cc distilled water is added to each vial. […]

Consider `CC12CCC(CC1=O)C2(C)C` (centres unmarked) [Camphor], for which the solubility result in series [1] is reported as “only slightly soluble in water”.
Take `C=C[C@H]1C[N@@]2CC[C@H]1C[C@H]2[C@H](O)c1ccnc2ccc(OC)cc12` [quinine alone, quinine]: the “result of injection into the hemorrhoid” value in the series with hemorrhoid is “not effectual”.

The values above are taken from patent US6844356B2, “Hemorrhoid therapeutic treatment” (priority 2003, dated 2005).
